Measured values: ChEMBL document CHEMBL1201862, “PubChem BioAssay data set” (2004)
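How tested: cells in 96-well plates exposed to compound for 48 hours at five concentrations. Here, GI50 denotes the concentration required for 50% inhibition of growth.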 Activity calls are given as the source filed them. No stated cut-off is given here; in the data, active = GI50 up to about 1.1 µM and inactive = higher.

How the values were obtained:
Experiment in all cases: NCI anticancer screen, dose series, 48 h
NCI-H522 = system: NCI-H522
SF-539 = system: SF-539
CCRF-CEM = system: CCRF-CEM
KM12 = system: KM12
SK-MEL-2 = system: SK-MEL-2
SNB-75 = system: SNB-75
HCT-116 = system: HCT-116
SW-620 = system: SW-620
HOP-62 = system: HOP-62
K562 = system: K562
HL-60 = system: HL-60
A549 = system: A549
SK-MEL-28 = system: SK-MEL-28
IGROV-1 = system: IGROV-1
HOP-92 = system: HOP-92
OVCAR-5 = system: OVCAR-5
UACC-62 = system: UACC-62
HT-29 = system: HT-29
UACC-257 = system: UACC-257
RXF 393 = system: RXF 393

Measured: GI50

CC12CCC(=O)N1c1cnccc1N2 (configuration not stated)
inactive: NCI-H522 > 100 µM | SF-539 > 100 µM | CCRF-CEM > 100 µM | KM12 > 100 µM | SK-MEL-2 > 100 µM | SNB-75 > 100 µM | HCT-116 > 100 µM | SW-620 > 100 µM | HOP-62 > 100 µM | K562 > 100 µM | HL-60 > 100 µM | A549 > 100 µM | SK-MEL-28 > 100 µM | IGROV-1 > 100 µM | HOP-92 > 100 µM | OVCAR-5 > 100 µM | UACC-62 > 100 µM | HT-29 > 100 µM | UACC-257 > 100 µM

CCOc1ncn(-c2ccc(NC(=S)Nc3cccc(O)c3)cc2)n1
inactive: NCI-H522 > 100 µM | SF-539 > 100 µM | CCRF-CEM > 100 µM | KM12 > 100 µM | SNB-75 40.4 µM | HCT-116 > 100 µM | SW-620 > 100 µM | HOP-62 > 100 µM | K562 > 100 µM | HL-60 > 100 µM | A549 > 100 µM | SK-MEL-28 > 100 µM | IGROV-1 > 100 µM | HOP-92 > 100 µM | OVCAR-5 > 100 µM | UACC-62 > 100 µM | HT-29 > 100 µM | UACC-257 > 100 µM

Cc1c(C#N)c(N)[nH]c(=S)c1C#N
inactive: NCI-H522 > 100 µM | SF-539 > 100 µM | CCRF-CEM > 100 µM | KM12 > 100 µM | SK-MEL-2 > 100 µM | SNB-75 > 100 µM | HCT-116 > 100 µM | SW-620 > 100 µM | HOP-62 > 100 µM | K562 > 100 µM | HL-60 > 100 µM | A549 > 100 µM | SK-MEL-28 > 100 µM | IGROV-1 > 100 µM | OVCAR-5 > 100 µM | RXF 393 > 100 µM | UACC-62 > 100 µM | HT-29 > 100 µM | UACC-257 > 100 µM

CCCCCCCCCCCCCCCc1nnc(S)[nH]1
inactive: NCI-H522 19.6 µM | SF-539 > 100 µM | CCRF-CEM 51.3 µM | KM12 > 100 µM | SK-MEL-2 29.6 µM | SNB-75 > 100 µM | HCT-116 > 100 µM | HOP-62 > 100 µM | K562 52.6 µM | HL-60 49.8 µM | SK-MEL-28 > 100 µM | OVCAR-5 > 100 µM | RXF 393 > 100 µM | UACC-62 97.9 µM | HT-29 > 100 µM | UACC-257 88.7 µM

Nc1n[nH]c2c1Cc1c(n(Cc3ccc(Cl)cc3)c3ccccc13)C(=O)N2
inactive: SF-539 15.4 µM | CCRF-CEM 8.38 µM | SK-MEL-2 15.9 µM | SNB-75 16.2 µM | HCT-116 8.15 µM | SW-620 8.47 µM | HOP-62 15 µM | K562 2.65 µM | HL-60 3.03 µM | A549 17.8 µM | SK-MEL-28 38.1 µM | IGROV-1 12.5 µM | HOP-92 12.9 µM | OVCAR-5 14.2 µM | RXF 393 5.69 µM | UACC-62 20.3 µM | HT-29 16.1 µM | UACC-257 18 µM

COc1ccc2nc3c(C)cc4ccccc4n3c2c1
inactive: SF-539 86.9 µM | CCRF-CEM 47.6 µM | KM12 > 100 µM | SNB-75 28.2 µM | HCT-116 41.6 µM | SW-620 73.6 µM | HOP-62 75.3 µM | K562 41.2 µM | HL-60 > 100 µM | A549 41.1 µM | SK-MEL-28 > 100 µM | IGROV-1 29.2 µM | HOP-92 50.8 µM | OVCAR-5 > 100 µM | RXF 393 25.8 µM | UACC-62 > 100 µM | HT-29 55 µM | UACC-257 > 100 µM

CN1C(=O)C(C#N)C2C[C@@]1(C)Oc1ccccc12 (some centres not stated)
inactive: NCI-H522 > 100 µM | CCRF-CEM > 100 µM | KM12 > 100 µM | SK-MEL-2 > 100 µM | SNB-75 > 100 µM | HCT-116 > 100 µM | SW-620 > 100 µM | HOP-62 > 100 µM | K562 > 100 µM | HL-60 > 100 µM | A549 > 100 µM | SK-MEL-28 > 100 µM | IGROV-1 > 100 µM | HOP-92 > 100 µM | OVCAR-5 > 100 µM | RXF 393 > 100 µM | UACC-62 > 100 µM | HT-29 > 100 µM | UACC-257 > 100 µM

C=C1CC[C@@H](Br)C(C)(C)[C@]12CCC(C)(O)C(Cl)C2 (some centres not stated)
inactive: NCI-H522 16.6 µM | CCRF-CEM 24.2 µM | KM12 18.2 µM | SK-MEL-2 18.5 µM | SNB-75 31 µM | HCT-116 18.1 µM | SW-620 14.2 µM | HOP-62 23.3 µM | K562 22.4 µM | HL-60 19.9 µM | A549 20 µM | SK-MEL-28 20 µM | IGROV-1 23.1 µM | HOP-92 23 µM | OVCAR-5 19.5 µM | RXF 393 17.5 µM | UACC-62 18.5 µM | HT-29 16.8 µM | UACC-257 17.9 µM

CC(=O)/N=C1\N/C(=C/c2cc([N+](=O)[O-])ccc2O)CN1C
inactive: SF-539 > 100 µM | KM12 > 100 µM | SK-MEL-2 > 100 µM | SNB-75 > 100 µM | HCT-116 > 100 µM | SW-620 > 100 µM | HOP-62 > 100 µM | HL-60 69.2 µM | A549 > 100 µM | SK-MEL-28 > 100 µM | IGROV-1 > 100 µM | HOP-92 > 100 µM | OVCAR-5 > 100 µM | UACC-62 > 100 µM | HT-29 > 100 µM | UACC-257 > 100 µM

CCOC(=O)/C=C1/C(CCCOCc2ccccc2)C2CCCC23CC2(CCN13)OCCO2 (configuration not stated)
inactive: NCI-H522 6.82 µM | CCRF-CEM 19.5 µM | KM12 22.3 µM | SK-MEL-2 17 µM | SNB-75 2.99 µM | SW-620 33.9 µM | K562 13.5 µM | HL-60 10.2 µM | A549 18.9 µM | SK-MEL-28 18.4 µM | IGROV-1 24.7 µM | OVCAR-5 44 µM | RXF 393 6.32 µM | UACC-62 15.2 µM | HT-29 16.9 µM | UACC-257 19.5 µM

O=C1OC(CN2CCOCC2)CN1/N=C/c1ccc([N+](=O)[O-])o1 (configuration not stated) [FURALTADONE]
inactive: NCI-H522 26 µM | SF-539 42.1 µM | CCRF-CEM 53 µM | KM12 18.5 µM | SK-MEL-2 69.3 µM | SNB-75 > 100 µM | HCT-116 19.1 µM | SW-620 50.7 µM | HOP-62 61.9 µM | K562 70 µM | HL-60 48.8 µM | A549 50.9 µM | SK-MEL-28 > 100 µM | IGROV-1 32.3 µM | HOP-92 64.4 µM | OVCAR-5 61.5 µM | UACC-62 34 µM | HT-29 32.4 µM | UACC-257 35.7 µM
